Molecules are shown by their SMILES. pIC50, pKi: −log10 of the molar value. Active and inactive are the calls of the source. No cut-off for these calls is given here.

The pIC50 is the IC50 on a negative log10 scale, so that one unit is a factor of ten. Low values mean a large IC50, high ones a small IC50. As usually defined, the inhibition is the relative decrease from the control value, in per cent. As a reminder, the pKi is −log10 of the Ki, conventionally taken in molar units. A lower pKi goes with a high Ki.

For data set [1], the target named is T1, Cholinesterase (Equus caballus, UniProt P81908).
T1 sequence (P81908 whole entry): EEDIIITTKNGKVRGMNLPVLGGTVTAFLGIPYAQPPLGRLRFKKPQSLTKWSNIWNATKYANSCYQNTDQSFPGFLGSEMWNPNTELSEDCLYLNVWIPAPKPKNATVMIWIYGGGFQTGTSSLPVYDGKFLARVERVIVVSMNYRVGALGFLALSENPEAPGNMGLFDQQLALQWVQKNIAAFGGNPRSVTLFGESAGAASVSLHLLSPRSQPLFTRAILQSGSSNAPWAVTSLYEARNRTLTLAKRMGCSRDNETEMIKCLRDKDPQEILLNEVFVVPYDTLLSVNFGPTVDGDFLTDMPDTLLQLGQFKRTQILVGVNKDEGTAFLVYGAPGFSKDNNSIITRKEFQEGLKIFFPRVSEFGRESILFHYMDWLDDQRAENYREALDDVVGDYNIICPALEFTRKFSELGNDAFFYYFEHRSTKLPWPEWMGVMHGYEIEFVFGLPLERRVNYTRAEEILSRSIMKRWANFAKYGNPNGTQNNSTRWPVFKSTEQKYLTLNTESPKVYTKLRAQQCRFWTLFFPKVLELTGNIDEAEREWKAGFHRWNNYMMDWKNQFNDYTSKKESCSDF
Description: Inhibition of equine serum BChE using butyrylthiocholine iodide as substrate preincubated for 10 mins followed by substrate addition by Ellman's method
Data set [2] deals with T2, Acetylcholinesterase (Homo sapiens, UniProt P22303). Briefly: Inhibition of human erythrocyte AChE at 20 uM using acetylthiocholine iodide as substrate preincubated for 10 mins followed by substrate addition Ellman's method. (DTNB colorimetry detects thiols as they appear.)
T2 sequence (P22303 whole entry): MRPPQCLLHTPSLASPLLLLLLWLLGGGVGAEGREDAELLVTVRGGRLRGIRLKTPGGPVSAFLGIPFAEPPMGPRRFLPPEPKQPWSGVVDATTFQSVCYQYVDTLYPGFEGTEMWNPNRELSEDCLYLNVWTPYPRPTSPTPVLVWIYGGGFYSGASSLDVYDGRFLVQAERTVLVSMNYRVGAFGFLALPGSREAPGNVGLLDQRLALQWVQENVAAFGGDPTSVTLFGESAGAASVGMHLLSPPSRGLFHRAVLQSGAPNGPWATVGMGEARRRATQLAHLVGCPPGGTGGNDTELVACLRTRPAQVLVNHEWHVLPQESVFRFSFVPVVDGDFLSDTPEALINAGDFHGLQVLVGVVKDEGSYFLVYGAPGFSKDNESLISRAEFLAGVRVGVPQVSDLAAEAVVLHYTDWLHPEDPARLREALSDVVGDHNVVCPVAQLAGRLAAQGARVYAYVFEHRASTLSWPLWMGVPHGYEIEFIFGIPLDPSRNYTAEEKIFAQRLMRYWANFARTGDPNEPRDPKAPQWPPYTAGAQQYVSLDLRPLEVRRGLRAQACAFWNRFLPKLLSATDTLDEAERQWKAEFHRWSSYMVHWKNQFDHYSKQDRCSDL
For data set [3], the target named is Cholinesterase (Equus caballus) (UniProt P81908). In words: Inhibition of equine serum BChE at 20 uM using butyrylthiocholine iodide as substrate preincubated for 10 mins followed by substrate addition by Ellman's method.
Sequence of Cholinesterase (Equus caballus) (P81908 whole entry): as the sequence (P81908 whole entry) above
In data set [4] the target is T3, Liver carboxylesterase (Sus scrofa, UniProt Q29550).
T3 sequence (Q29550 whole entry): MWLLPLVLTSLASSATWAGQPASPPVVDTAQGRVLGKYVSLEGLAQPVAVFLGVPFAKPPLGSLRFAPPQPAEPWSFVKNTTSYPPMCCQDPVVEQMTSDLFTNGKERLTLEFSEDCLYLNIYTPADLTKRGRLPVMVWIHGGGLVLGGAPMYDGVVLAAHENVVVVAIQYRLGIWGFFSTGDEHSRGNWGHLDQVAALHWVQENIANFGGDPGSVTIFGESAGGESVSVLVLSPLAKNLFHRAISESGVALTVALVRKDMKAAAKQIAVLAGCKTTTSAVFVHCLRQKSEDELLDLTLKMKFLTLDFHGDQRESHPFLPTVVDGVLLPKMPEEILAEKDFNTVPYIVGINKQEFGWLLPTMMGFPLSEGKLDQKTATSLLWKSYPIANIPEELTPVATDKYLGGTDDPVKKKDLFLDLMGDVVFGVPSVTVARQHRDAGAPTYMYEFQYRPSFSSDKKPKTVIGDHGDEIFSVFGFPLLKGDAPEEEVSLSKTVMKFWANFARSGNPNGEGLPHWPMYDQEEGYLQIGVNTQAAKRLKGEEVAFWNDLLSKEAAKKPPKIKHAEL
In words: in vitro. Particulars: pig, probe 4-nitrophenol acetate.
Description: Inhibition of pig liver carboxylesterase at 20 uM using 4-nitrophenol acetate as substrate by spectrophotometric analysis

In data set [5] the target is T2, Acetylcholinesterase.
Description: Inhibition of human erythrocyte AChE using acetylthiocholine iodide as substrate preincubated for 10 mins followed by substrate addition by Ellman's method
In data set [6] the target is T3, Liver carboxylesterase.
Description: Inhibition of pig liver carboxylesterase using 4-nitrophenol acetate as substrate by spectrophotometric analysis
Data set [7] deals with T1, Cholinesterase. The source holds these as a separate data set.
Description: Competitive inhibition of equine serum BChE using butyrylthiocholine iodide as substrate preincubated for 10 mins followed by substrate addition by Lineweaver-Burk double reciprocal kinetic plot analysis
In data set [8] the target is Cholinesterase (Equus caballus) (UniProt P81908). In words: Non-competitive inhibition of equine serum BChE using butyrylthiocholine iodide as substrate preincubated for 10 mins followed by substrate addition by Lineweaver-Burk double reciprocal kinetic plot analysis.
Data set [9] concerns the target T2, Acetylcholinesterase. The source holds these as a separate data set.
Description: Competitive inhibition of human serum AChE using acetylthiocholine iodide as substrate preincubated for 10 mins followed by Lineweaver-Burk double reciprocal kinetic plot analysis
The target in data set [10] is T2, Acetylcholinesterase. Briefly: Non-competitive inhibition of human […] AChE using acetylthiocholine iodide as substrate preincubated for 10 mins followed by substrate addition by Lineweaver-Burk double reciprocal kinetic plot analysis.

In turn, `CN1c2ccccc2C(c2ccc(N)cc2)c2ccccc21` gave a negative logarithm of the IC50 (pIC50) against Cholinesterase [1] of 4.18. The inhibition entry on Acetylcholinesterase [2] was “inactive”.
As for `CN1c2ccccc2C(c2ccc(F)cc2)c2ccccc21`, the pIC50 on Cholinesterase [1] is under 4.70. Moreover, the inhibition entry on Acetylcholinesterase [2] was “inactive”. In addition, the inhibition in [3] was 11.1%.
In the case of `O=[N+]([O-])c1ccc(OP(=O)(O)Oc2ccc([N+](=O)[O-])cc2)cc1`, the inhibition result (at Acetylcholinesterase [2]; in data set [3]) was “inactive” in each case.
With `C[n+]1c2ccccc2c(-c2cc(C(C)(C)C)cc(C(C)(C)C)c2O)c2ccccc21`, the pIC50 was 5.56 at Cholinesterase [1], under 4.70 on Acetylcholinesterase [5] and under 4.70 on Liver carboxylesterase [6]. This compound also yielded an inhibition at 20 µM on Liver carboxylesterase [4] of 31.2%. The compound also showed an inhibition against Acetylcholinesterase [2] of 16.7%. Besides, on Cholinesterase [7], the pKi was 5.84. This compound also had an alphaKi in data set [8] of 4.75 µM.
For the compound `CN1c2ccccc2C(c2cccs2)c2ccccc21`, the pIC50 against Cholinesterase [1] and against Liver carboxylesterase [6] was under 4.70 each time. The compound also displayed an inhibition at 20 µM on Liver carboxylesterase [4] of 11.1%. Besides, the inhibition entry on Acetylcholinesterase [2] was “inactive”. Further, the inhibition in data set [3] was 12.3%.
As for `CN1c2ccccc2C(N2CCOCC2)c2ccccc21`, the figures for the pKi on Acetylcholinesterase [9] and at Cholinesterase [7] were 5.40 and 6.39, respectively. The alphaKi worked out at 19.6 µM at Acetylcholinesterase [10] and 1.17 µM in data set [8]. Moreover, the figures for the negative logarithm of the IC50 (pIC50) against Cholinesterase [1], against Acetylcholinesterase [5] and against Liver carboxylesterase [6] were 6.34, 4.91 and under 4.70, respectively. The inhibition at 20 µM against Liver carboxylesterase [4] is 16.4%.
Consider `CN1c2ccccc2C(n2nnc3ccccc32)c2ccccc21`, for which the pKi at Acetylcholinesterase [9] is 5.19; at Cholinesterase [7] it was 6.31. In addition, the values for the alphaKi (on Acetylcholinesterase [10]; in [8]) were 17.9 µM and 2.13 µM, respectively. Besides, the pIC50 against Cholinesterase [1] is 5.97; on Acetylcholinesterase [5], 4.91; at Liver carboxylesterase [6], under 4.70. Further, at Liver carboxylesterase [4], at 20 µM the inhibition was 15.3%.
For `C[n+]1c2ccccc2c(-c2cccs2)c2ccccc21`, the pIC50 against Cholinesterase [1] was 4.23; against Acetylcholinesterase [5], 4.39; against Liver carboxylesterase [6], under 4.70. On Liver carboxylesterase [4], this compound came in with an inhibition at 20 µM of 6.1%.
As for `C[n+]1c2ccccc2c(-c2ccc(NC(=O)C(F)(F)F)cc2)c2ccccc21`, the negative logarithm of the IC50 (pIC50) is under 4.70 at Cholinesterase [1], 4.44 at Acetylcholinesterase [5] and under 4.70 at Liver carboxylesterase [6]. This compound showed an inhibition at 20 µM on Liver carboxylesterase [4] of 7.2%. Further, the inhibition in data set [3] was determined as 7.7%.
Take `Cc1ccc(C2c3ccccc3N(C)c3ccccc32)cc1`: the pIC50 against Cholinesterase [1] and against Acetylcholinesterase [5] was under 4.70 each time. In addition, the inhibition against Acetylcholinesterase [2] was found to be 5.1%; in data set [3] it was 10.6%.
Regarding `C[n+]1c2ccccc2c(-c2ccc(F)cc2)c2ccccc21`, the pIC50 at Cholinesterase [1] was under 4.70; on Acetylcholinesterase [5] it was 4.49; on Liver carboxylesterase [6], under 4.70. Further, 20 µM produced 5.9% inhibition against Liver carboxylesterase [4]. Further, the inhibition in data set [3] was determined as 8.2%.
Turning to `CCCCNc1c2ccccc2[n+](C)c2ccccc12`, the pIC50 was 4.80 against Cholinesterase [1] and under 4.70 against Acetylcholinesterase [5]. Besides, on Acetylcholinesterase [2], the inhibition was 16.8%.
In turn, `CN1c2ccccc2C(c2ccc(NC(=O)C(F)(F)F)cc2)c2ccccc21` gave a pIC50 against Cholinesterase [1] of under 4.70. For the same compound, the inhibition entry at Acetylcholinesterase [2] is “inactive”. In data set [3], this compound displayed an inhibition of 7.1%.
For `C[n+]1c2ccccc2c(N)c2ccccc21`, the pIC50 against Cholinesterase [1] was 5.32; at Acetylcholinesterase [5], 4.40.
Take `Cc1cc(-c2c3ccccc3[n+](C)c3ccccc23)cc(C)c1C`: the results for the pIC50 against Cholinesterase [1] and against Acetylcholinesterase [5] were under 4.70 and 4.22, respectively. The inhibition in [3] amounted to 14.2%.
Compound `CN1c2ccccc2C(c2ccccc2)c2ccccc21` showed a pIC50 against Cholinesterase [1] of 4.21. For the same compound, on Acetylcholinesterase [2], the inhibition result is “inactive”.
As to `Cc1cc(-c2c3ccccc3[n+](C)c3ccccc23)cc(C)c1O`, the pIC50 is 4.21 against Cholinesterase [1] and 4.30 at Acetylcholinesterase [5].
`CN1c2ccccc2C(c2cc(C(C)(C)C)cc(C(C)(C)C)c2O)c2ccccc21` showed a pIC50 against Cholinesterase [1] of under 4.70. Besides, the inhibition entry on Acetylcholinesterase [2] was “inactive”. The same compound gave an inhibition in [3] of 13.4%.
Consider `Cc1ccc(-c2c3ccccc3[n+](C)c3ccccc23)cc1`, for which the pIC50 was 4.39 against Cholinesterase [1], 4.38 at Acetylcholinesterase [5] and under 4.70 against Liver carboxylesterase [6]. Besides, the inhibition at 20 µM on Liver carboxylesterase [4] came out at 16.3%.
Turning to `COc1ccc(-c2c3ccccc3[n+](C)c3ccccc23)cc1`, the figures for the pIC50 against Cholinesterase [1], at Acetylcholinesterase [5] and against Liver carboxylesterase [6] were 4.23, 4.86 and under 4.70, respectively. On Liver carboxylesterase [4], testing at 20 µM gave an inhibition of 7.8%.
Turning to `CN1c2ccccc2C(c2cc(C(C)(C)C)c(O)c(C(C)(C)C)c2)c2ccccc21`, the pIC50 against Cholinesterase [1] and against Liver carboxylesterase [6] was under 4.70 each time. The compound further gave an inhibition at 20 µM on Liver carboxylesterase [4] of 23.6%. On Acetylcholinesterase [2], the inhibition result is “inactive”. The inhibition in [3] amounted to 10.4%.
Consider `C[n+]1c2ccccc2c(-c2c(O)ccc3ccccc23)c2ccccc21`, for which the pIC50 is 4.29 against Cholinesterase [1], under 4.70 against Acetylcholinesterase [5] and under 4.70 on Liver carboxylesterase [6]. The compound also gave an inhibition at 20 µM against Liver carboxylesterase [4] of 8.9%. This compound showed an inhibition at Acetylcholinesterase [2] of 7.3%.
`CN1c2ccccc2C(n2cnc([N+](=O)[O-])n2)c2ccccc21`: the pIC50 was 5.93 at Cholinesterase [1], 4.78 on Acetylcholinesterase [5] and under 4.70 against Liver carboxylesterase [6]. At Liver carboxylesterase [4], 20 µM produced 10.6% inhibition.
As for `CC(=O)Nc1ccc(-c2c3ccccc3[n+](C)c3ccccc23)cc1`, the values for the pIC50 at Cholinesterase [1] and on Acetylcholinesterase [5] were 4.45 and 4.27, respectively.
Turning to `COc1ccc(C2c3ccccc3N(C)c3ccccc32)cc1`, the pIC50 against Cholinesterase [1] and against Acetylcholinesterase [5] was under 4.70 in each case. The inhibition turned out to be 9.3% against Acetylcholinesterase [2] and 11.6% in data set [3].
For `CC(=O)Nc1ccc(C2c3ccccc3N(C)c3ccccc32)cc1`, the pIC50 against Cholinesterase [1] and at Liver carboxylesterase [6] was under 4.70 throughout. In addition, 20 µM produced 7.2% inhibition at Liver carboxylesterase [4]. Moreover, at Acetylcholinesterase [2], the inhibition result is “inactive”. The inhibition in data set [3] amounted to 10.8%.
Regarding `CN1c2ccccc2C(n2cncn2)c2ccccc21`, the results for the pKi at Acetylcholinesterase [9] and at Cholinesterase [7] were 5.48 and 6.80, respectively. For the same compound, the pIC50 was 6.09 against Cholinesterase [1], 4.73 against Acetylcholinesterase [5] and under 4.70 at Liver carboxylesterase [6]. Further, at 20 µM the inhibition against Liver carboxylesterase [4] was 5.4%. Moreover, the alphaKi in data set [8] was 0.72 µM.
On to `C[n+]1c2ccccc2c(-c2ccccc2)c2ccccc21`, for which the pIC50 was 4.28 against Cholinesterase [1], 4.21 on Acetylcholinesterase [5] and under 4.70 against Liver carboxylesterase [6]. Also, testing at 20 µM against Liver carboxylesterase [4] gave an inhibition of 22.6%.
For `C[n+]1c2ccccc2c(-c2ccc(N)cc2)c2ccccc21`, the pKi on Acetylcholinesterase [9] was 5.58; on Cholinesterase [7], 4.72. Moreover, the figures for the alphaKi (at Acetylcholinesterase [10]; in [8]) were 8.95 µM and 55.4 µM, respectively. Besides, the values for the pIC50 against Cholinesterase [1], at Acetylcholinesterase [5] and at Liver carboxylesterase [6] were 4.41, 5.12 and under 4.70, respectively. On Liver carboxylesterase [4], at 20 µM the inhibition was 18.6%.
Consider `CN1c2ccccc2C(N2CCSCC2)c2ccccc21`, for which the pKi at Acetylcholinesterase [9] is 5.43; at Cholinesterase [7], 6.46. Moreover, the pIC50 was 6.08 at Cholinesterase [1], 4.93 at Acetylcholinesterase [5] and under 4.70 at Liver carboxylesterase [6]. The inhibition at 20 µM against Liver carboxylesterase [4] came to 5%. Besides, in data set [8], the alphaKi came out at 1.31 µM.
In the case of `CN1c2ccccc2C(n2c3ccccc3c3ccccc32)c2ccccc21`, the figures for the pIC50 on Cholinesterase [1] and against Acetylcholinesterase [5] were 4.89 and under 4.70, respectively. The inhibition against Acetylcholinesterase [2] was found to be 5.6%.
With `CCN(CC)c1ccc(-c2c3ccccc3[n+](C)c3ccccc23)cc1`, the pKi on Acetylcholinesterase [9] was 4.88; on Cholinesterase [7], 6.03. Moreover, the alphaKi turned out to be 28 µM on Acetylcholinesterase [10] and 4.22 µM in data set [8]. Moreover, the pIC50 against Cholinesterase [1] is 5.47; against Acetylcholinesterase [5], 4.60.

Source of the values: ChEMBL document CHEMBL4043268 (Bioorg Med Chem, 2017).
